Test results reported in US5283361A, “N-hydroxy-N-[3-[2-(halophenylthio)phenyl]prop-2-enyl]ureas as lipoxygenase inhibitors” (Eli Lilly and Company, priority 1992, dated 1994).

Legend:
[1] = system: 5-LO; experiment: In vitro antigen (ovalbumin)-induced contraction of sensitized guinea pig tracheal strips, Schultz-Dale reaction (Inhibition of 5-LO); format: cell-based; details: Cavia porcellus, antigen (OA) 30 ng/ml, 30 min preincubation, with indomethacin 5 μM and pyrilamine 10 μM
Experimental: Male, Hartley strain guinea-pigs (200-250 g) were actively sensitized by three injections of ovalbumin (OA, 10 mg/kg). The OA was administered intraperitoneally on Days 1 and 3 and subcutaneously on Day 5. In vitro experiments were performed 21-25 days later.
On the day of the experiment, guinea pigs were killed by asphyxiation with CO2 and the tracheas removed, cleaned of surrounding connective tissue and cut into spiral strips. Each strip was divided in half for paired experiments. Tissues were placed in 10 ml jacketed tissue baths maintained at 37° C. and attached with cotton thread to Grass force-displacement transducers (FT03C). […] Tracheal strips were bathed in modified Krebs' solution of the following composition (millimolar) NaCl, 118.2;KCl, 4.6; CaCl2.2H2 O, 2.5; MgSO4.7H2 O, 1.2; NaHCO3,24.8; KH2 PO4, 1.0; and dextrose, 10.0. The buffer contained indomethacin (5 μM) which potentiated the contractions of the cysteinyl leukotriene (LT) by removing the influence of cyclooxygenase products. The tissue baths were aerated with 95% O2 :5% CO2. Tracheal strips were placed under a resting tension of 2 g, and the tissues were allowed a minimal stabilization period of 60 minutes before undergoing experimentation. Bath fluid was changed at 15 minute intervals during the stabilization period.
Cumulative concentration-response curves were obtained from tracheal strips by increasing the agonist concentration in the organ bath by half-log increments while the previous concentration remained in contact with the tissues (van Rossum, Arch. Int. Pharmacodyn. Ther., 143, 299-330 (1963)). Agonist concentration was increased after reaching the plateau of the contraction elicited by the preceeding concentration. One concentration-response curve was obtained from each tissue. To minimize variability between tissues, contractile responses were expressed as a percentage of the maximal response obtained with carbachol (10 μM), added to the bath at the end of the concentration-response curve. Initially, tissues were challenged with carbachol (10 μM) following the 60 minute stabilization period to insure tissue viability. After recording the maximal response to the initial carbachol challenge, the tissues were washed and reequilibrated for 60 minutes before starting the experimental protocol.
To evaluate the effects of novel 5-lipoxygenase inhibitors in the Schultz-Dale reaction, each compound was incubated with the tissues 30 minutes before starting the curves. Vehicle (DMSO) was given to the paired control tissue. Pyrilamine (10 μM) was added to all baths at this time to block the actions of released histamine. Responses obtained at the antigen concentration of 30 ng/ml were recorded in the absence and presence of drug and percent inhibition was calculated for each pair of tissues. IC50 valves were determined by linear regression.

[2] = system: 5-LO; experiment: In vivo ovalbumin-induced increase in intratracheal pressure in passively sensitized guinea pigs (Inhibition of 5-LO); parameters: species or system guinea pig; details: OA-induced increase in tracheal pressure; for Inhibition of 5-LO In Vivo Percent Inhibition (dose of 10 mg/kg): dose of 10 mg/kg (footnote a), po, 2 hr.
Experimental: Male Hartley guinea pigs (350-500 g) were passively sensitized against ovalbumin by i.p. administration of 0.3 ml of antiserum 2 days preceeding the experiment. Hyperimmune serum was prepared from actively sensitizing male guinea pigs conditioned with 2 mg of ovalbumin in 50% Complete Freund's Adjuvant i.p. on days 1 and 5. On day 21, the animals were bled and the serum collected and stored at -20° C. On the day of the experiment the passively sensitized guinea pigs were anesthetized with 35 to 40 mg/kg of pentobarbital sodium given i.p. The right jugular vein was cannulated with Tygon microbore tubing (o.d.=03) connected to a syringe for administration of selected drugs. Blood pressure was measured with a Statham pressure transducer connected to a Tygon catheter placed in the left carotid artery. The trachea was cannulated and each animal was ventilated with room air by means of a Harvard rodent respirator set to deliver a tidal volume of 1 ml/100 g body weight with a rate of 60 breaths/minute. Succinylcholine (5 mg/kg) was given i.v. to suppress spontaneous respiration. Intratracheal pressure, an index of total pulmonary resistance, was measured with a Statham pressure transducer connected to a T-tube on the tracheal cannula. […] Body temperature was maintained within normal limits by means of a Deltaphase isothermal pad. Prior to surgery, test compound or vehicle (PEG 400) was administered to each guinea pig by oral gavage and OA challenge was at designated times following oral dosing. The animals were pretreated i.v. with pyrilamine (5 mg/kg), propranolol (1 mg/kg) and indomethacin (10 mg/kg) 5 minutes prior to the OA challenge. OA-induced increase in tracheal pressure was expressed as a percentage of the maximal pressure obtained by clamping the trachea with a hemistat. To determine the effect of each drug, a % inhibition value was calculated from the vehicle and drug treated animals at each concentration tested.

SMILES | IC50 [1] [nM] | Inhibition of 5-LO In Vivo Percent Inhibition at 30 mg/kg, po, 2 hr. [2] [%] | Inhibition of 5-LO In Vivo Percent Inhibition (dose of 10 mg/kg) [2] [%]
NC(=O)N(O)C/C=C/c1cccc(F)c1Sc1ccc(F)cc1 [Example 6, N-hydroxy-N-[3-[2-(4-fluorophenylthio)-3-fluorophenyl]prop-2-enyl]urea] | 130 | 81 | 
NC(=O)N(O)C/C=C/c1ccc(F)cc1Sc1ccc(F)cc1 [Example 3, N-hydroxy-N-[3-[2-(4-fluorophenylthio)-4-fluorophenyl]prop-2-enyl]urea] | 190 |  | 43
NC(=O)N(O)C/C=C/c1cc(F)ccc1Sc1ccc(F)cc1 [Example 4, N-hydroxy-N-[3-[2-(4-fluorophenylthio)-5-fluorophenyl]prop-2-enyl]urea] | 230 | 52 | 
NC(=O)N(O)C/C=C/c1ccccc1Sc1ccc(Cl)cc1 [Example 5, N-hydroxy-N-[3-[2-(4-chlorophenylthio)phenyl]prop-2-enyl]urea] | 140 | 95 | 
NC(=O)N(O)C/C=C/c1ccccc1Sc1ccc(F)cc1 [Example 2, N-hydroxy-N-[3-[2-(4-fluorphenylthio)phenyl]prop-2-enyl]urea] | 100 | 96 | 
NC(=O)N(O)C/C=C/c1c(F)cccc1Sc1ccc(F)cc1 [Example 1, N-hydroxy-N-[3-[2-(4-fluorophenylthio)-6-fluorophenyl]-prop-2-enyl]urea] | 50 | 97 | 
NC(=O)N(O)C/C=C/c1cccc(F)c1Sc1ccc(Cl)cc1 [Example 7, N-hydroxy-N-[3-[2-(4-chlorophenylthio)-3-fluorophenyl]prop-2-enyl]urea] | 90 |  | 77
NC(=O)N(O)C/C=C/c1c(F)cccc1Sc1ccc(Cl)cc1 [Example 8] | 130 | 46 | 
